Measurements taken from publication PMC12670426 (Journal of Medicinal Chemistry, 2025).

How the values were obtained:
Cytotoxicity assay, THP1 = format: cell-based; details: human, THP1 cells, viability dye, flow cytometry
Procedure: (§1) To evaluate in vitro cytotoxicity and support its potential application in inflammatory and fibrotic disease models, the following panel of cell lines, representing the relevant biological systems, was used: HEK293, HepG2, THP1, Jurkat E6.1, and LX2. HEK293, HepG2, and Jurkat E6.1 cells were seeded at 400,000 cells/mL, THP1 cells at 500,000 cells/mL, and LX2 cells at 200,000 cells/mL in 96-well plates (cell culture-treated, VWR) in 100 μL/well. Cells were treated with the tested compounds in a serial dilution (300, 100, 33.3, 11.1, and 3.7 μM) for 24 h. Untreated cells served as negative controls to establish the baseline viability threshold. Cell viability was assessed using a viability dye (Zombie Violet Fixable Viability Kit, BioLegend) following the manufacturer’s instructions and analyzed by flow cytometry (see below).
(§2) Cells or beads from screening assays prepared for flow cytometry were analyzed by the CytoFlex S instrument (Beckman Coulter). Data acquisition was performed using CytExpert software (v2.5, Beckman Coulter). Debris was excluded by forward and side scatter gating, followed by doublet exclusion. Data were analyzed using FlowJo software (v10, BD Biosciences).

[1] = Kinetic solubility assay in PBS; format: physicochemical; details: aqueous buffer, kinetic from dmso stock; PBS at pH 7.4, 100 μM final, 2 h room temperature
Procedure: The solutions were incubated at room temperature for 2 h and filtered by centrifugation. Filtrates were diluted 100-fold with 50% acetonitrile in water and then analyzed on the Echo-MS system (SCIEX) using MRM transition monitoring, except for compound 3af, which was analyzed by LC–MS/MS as described in the plasma stability assay. Compound concentrations were quantified against calibration curves prepared in the identical matrix as the samples.

[2] = Microsomal stability assay, mouse liver microsomes; format: in vitro ADME; details: pooled liver microsomes, pH 7.4, mouse liver microsomes 0.5 mg/mL, NADPH
Procedure: Microsomal stability was determined using 0.5 mg/mL of pooled human, mouse, or rat liver microsomes (Thermo Fisher Scientific) in 90 mM TRIS-Cl buffer (pH 7.4) containing 2 mM NADPH and 2 mM MgCl2. Test compounds (10 μM) were added, and the resulting mixture was incubated at 37 °C for 10, 60, 120, and 180 min. The reactions were terminated by the addition of four volumes of ice-cold methanol, followed by vigorous mixing. The samples were left at −20 °C for 30 min and then stored at 4 °C overnight. The next day, samples were centrifuged, and supernatants were diluted with four volumes of 30% methanol in water. Zero time points were prepared by adding ice-cold methanol to the mixture of compounds and cofactors prior to the addition of microsomes. The samples were then analyzed using the Echo-MS system (SCIEX) with MRM transition monitoring, except for compound 3af, which was analyzed by LC–MS/MS as described in the plasma stability assay.

[3] = Cytotoxicity assay, HEK293; format: cell-based; details: human, HEK293 cells, viability dye, flow cytometry
Procedure: as §1, §2

[4] = system: TGFβ-stimulated LX2 hepatic stellate cells; assay: Antifibrotic efficacy: profibrotic gene expression in TGFβ-stimulated LX2 hepatic stellate cells (RT-qPCR); format: cell-based, human; details: TGFβ-stimulated LX2, 48 h, RT-qPCR normalized to ACTB
Procedure: LX2 cells were then stimulated with transforming growth factor-β1 (TGFβ1; PeproTech, Thermo Fisher Scientific) at 5 ng/mL to induce profibrotic signaling. […] After 48 h of treatment, cells were harvested into 100 μL RA1 buffer, and total RNA was then isolated using the NucleoSpin 96 RNA Kit (Macherey-Nagel, Düren, Germany) and reverse-transcribed into cDNA using the LunaScript RT SuperMix Kit (New England Biolabs, Ipswich, MA, USA). Quantitative real-time PCR (RT-qPCR) was used to determine mRNA expression levels of selected profibrotic markers: αSMA (ACTA2), collagen α-2(I) chain (COL1A2), and fibronectin 1 (FN1), and the housekeeping gene β-actin (ACTB). Amplification was carried out using Luna Universal qPCR Master Mix (New England Biolabs) and primer pairs for individual genes as follows: ACTA2: forward primer: [NT], reverse primer: [NT]; COL1A2: forward primer: [NT], reverse primer: [NT]; FN1: forward primer: [NT], reverse primer: [NT]; ACTB: forward primer: [NT], reverse primer: [NT] (Eurofins Genomics). Data were normalized to ACTB expression and analyzed using the ΔΔCt method.

[5] = Plasma protein binding assay (rapid equilibrium dialysis), human plasma; format: in vitro ADME; details: fraction bound, read-out: plasma protein binding Fb human (converted)
Procedure: (§3) Test compound (10 μM) was incubated at 37 °C for 4 h with mouse, rat, or human plasma (Biowest) in the donor well of a rapid equilibrium dialysis plate (Thermo Fisher Scientific). PBS was placed in the acceptor well. To stop the assay, samples were collected from both wells, and an equal volume of plasma was added to the PBS sample, and vice versa. Proteins were then precipitated by adding three volumes of ice-cold methanol. Samples were mixed gently, kept at −20 °C for 30 min, and then stored at 4 °C overnight. The next day, the samples were centrifuged, and the supernatants were diluted with four volumes of 30% methanol in water. The samples were then analyzed using the Echo-MS system (SCIEX) with MRM transition monitoring, except for compound 3af, which was analyzed by LC–MS/MS as described in the plasma stability assay.

[6] = Plasma protein binding assay (rapid equilibrium dialysis), mouse plasma; format: in vitro ADME; details: fraction bound, read-out: plasma protein binding Fb mouse (converted)
Procedure: as §3

[7] = system: LPS-stimulated macrophage-like THP1 cells (TNFα secretion); assay: Anti-inflammatory potential: TNFα secretion in LPS-stimulated PMA-differentiated THP1 cells; format: cell-based, human; details: (+)PMA THP1, 1 μg/mL LPS, 24 h, up to 300 μM
Procedure: Cells were differentiated overnight into macrophage-like phenotypes by treatment with 10 ng/mL PMA and subsequently stimulated with 1 μg/mL lipopolysaccharide (LPS; Invitrogen, Thermo Fisher Scientific) to induce a proinflammatory response. […] After 24 h of LPS and compound exposure, cell culture supernatants were collected and analyzed for TNFα levels using a bead-based multiplex immunoassay (ProcartaPlex Human Basic Kit and TNFα Human ProcartaPlex Simplex Kit, both Invitrogen, Thermo Fisher Scientific). Flow cytometry readout was used as previously described. TNFα concentrations were calculated using a standard curve generated in GraphPad Prism 10 (GraphPad Software, San Diego, CA). Cells or beads from screening assays prepared for flow cytometry were analyzed by the CytoFlex S instrument (Beckman Coulter). Data acquisition was performed using CytExpert software (v2.5, Beckman Coulter). Debris was excluded by forward and side scatter gating, followed by doublet exclusion. Data were analyzed using FlowJo software (v10, BD Biosciences).

[8] = Cytotoxicity assay, panel of five human cell lines; format: cell-based; details: HEK293, HepG2, THP-1, Jurkat E6.1 and LX2 cells; summary in text across panel of five human cell lines
Procedure: as §1, §2

solubility kinetic at 2 h [1]: > 100 µM | microsomal CLint at 10 μM [2]: < 2 µL/min/mg | fraction unbound at 4 h, 10 μM [5]: 0.55 | fraction unbound at 4 h, 10 μM [6]: 0.57
Structure (SMILES): CC(=O)N(c1cc(C(=O)O)cc2[nH]ccc12)[C@@H]1O[C@H](CO)[C@@H](S[C@@H]2O[C@H](CO)[C@H](O)[C@H](n3cc(-c4cccc(F)c4)nn3)[C@H]2O)[C@H](O)[C@H]1O [Compound 11, N-[4-S-(3-Deoxy-3-(4-(3-fluorophenyl)-1H-1,2,3-triazol-1-yl)-β-D-galactopyranosyl)-4-thio-β-D-glucopyranosyl]-N-(6-carboxy-1H-indol-4-yl)acetamide]
CC50 at 24 h (Cytotoxicity assay, THP1): > 300 µM | CC50 at 24 h [3]: > 300 µM | ACTA2 mRNA expression [4]: dose-dependent downregulation | COL1A2 mRNA expression [4]: dose-dependent downregulation | FN1 mRNA expression [4]: dose-dependent downregulation | LPS-induced TNFα secretion [7]: no suppression | CC50 at 24 h [8]: > 300 µM
